# Test results as given in patent US4196205A, “3-Acetoxymethyl-7-(iminoacetamido)-cephalosporanic acid derivatives” (priority 1976, dated 1980).
# Read-outs that look alike come from different tables or passages of the source.
# Legend:
# Test in all cases: MIC, dilution in liquid medium
# Assay type in all cases: cell-based
# [1] = test system: Escherichia Coli Resistant Tetracycline ATCC 11 303 = UC 1261; conditions: Escherichia coli
# Description: (§1) The method used was a dilution of a liquid medium where a series of tubes received the same quantity of a sterile nutritive media and increasing doses of the test compounds were placed therein. Then each tube was seeded with a bacterial strain and was incubated for 24 to 48 hours at 37° C. in an oven. The increasing inhibition was determined by transillumination to determine the minimum inhibiting concentration (MIC in […]) and the results are reported in the following Tables.
# [2] = test system: Streptococcus faecalis 99 F 74; conditions: Enterococcus faecalis
# Description: as §1
# Enterobacter cloacae 681 = test system: Enterobacter cloacae 681
# Description: as §1
# [3] = test system: Klebsiella pneumoniae Exp. 52 145; conditions: Klebsiella pneumoniae
# Description: as §1
# [4] = test system: Klebsiella pneumoniae 2 536 Resistant Gentamicine; conditions: Klebsiella pneumoniae
# Description: as §1
# [5] = test system: Salmonella typhimurium 420; conditions: Salmonella enterica, TYPHIMURIUM
# Description: as §1
# [6] = test system: Proteus mirabilis (indol-) A 235; conditions: Proteus mirabilis, read-out: M.I.C.
# Description: as §1
# [7] = test system: Bacillus subtilis ATCC 6 633; conditions: Bacillus subtilis
# Description: as §1
# [8] = test system: Streptococcus faecalis 5 432
# Description: as §1
# [9] = test system: Streptococcus pyogenes A 561; conditions: Streptococcus pyogenes, read-out: M.I.C.
# Description: as §1
# [10] = test system: Escherichia Coli Resistant Gentamicine, Tobramycine R 55 123 D; conditions: Escherichia coli, read-out: M.I.C.
# Description: as §1
# [11] = test system: Staphylococcus aureus exp. n° 54 146; conditions: Staphylococcus aureus
# Description: as §1
# [12] = test system: Serratia Resistant Gentamicine 2 532
# Description: as §1
# Providencia Du 48 = conditions: Providencia
# Description: as §1
# [13] = test system: Staphylococcus aureus UC 1 128 Pen-Resistant; conditions: Staphylococcus aureus
# Description: as §1
# [14] = test system: Escherichia Coli Exp. TO26 B6; conditions: Escherichia coli
# Description: as §1
# [15] = test system: Staphylococcus aureus ATCC 5 638 Pen-Sensible = UC 1061
# Description: as §1
# [16] = test system: Escherichia Coli Sensible Tetracycline ATCC 9 637 = 1020; conditions: Escherichia coli
# Description: as §1
# [17] = Enterobacter cloacae, 681, 24 h
# [18] = Enterococcus faecalis, 5432, 24 h, 24 H
# [19] = Enterococcus faecalis, 5432, 48 h, 48 H
SMILES,MIC (Enterobacter cloacae 681; [17]),"MIC ([5]; 24 h, read-out: M.I.C.)",MIC ([6]; 24 h),MIC ([6]; 48 h),"MIC ([7]; ATCC6, 48 h, 48 H)","MIC [8, 18]","MIC [8, 19]","MIC ([9]; A561, 24 h, 24 H)","MIC ([9]; A561, 48 h, 48 H)",MIC ([10]; 24 h),MIC ([10]; 48 h),MIC ([11]; 24 h),MIC ([11]; 48 h),MIC ([12]; 24 h),"MIC (Providencia Du 48; DU48, 24 h, 24 H)","MIC (Providencia Du 48; DU48, 48 h, 48 H)","MIC ([13]; UC1, 24 h, 24 H)","MIC ([13]; UC1, 48 h, 48 H)",MIC ([14]; 24 h),MIC ([14]; 48 h),also measured
"CC(=O)OCC1=C(C(=O)O)N2C(=O)C(NC(=O)/C(=N\O)c3csc(N)n3)C2SC1 (stereo not drawn) [Example 28, syn isomer of 7-[2-(2-amino-4-thiazolyl)-2-hydroxyiminoacetamido]-3-acetoxymethyl-ceph-3-eme-4-carboxylic acid]",5 µg/mL,0.1 µg/mL,0.1 µg/mL,0.2 µg/mL,1 µg/mL,5 µg/mL,5 µg/mL,0.02 µg/mL,0.02 µg/mL,0.2 µg/mL,0.2 µg/mL,1 µg/mL,1 µg/mL,5 µg/mL,2 µg/mL,2 µg/mL,1 µg/mL,1 µg/mL,0.05 µg/mL,0.1 µg/mL,"MIC ([1]; 24 h): 0.1 µg/mL; MIC ([1]; 48 h): 0.1 µg/mL; MIC ([2]; 99F74, 24 h, read-out: M.I.C.): 10 µg/mL; MIC ([2]; 99F74, 48 h, 48 H): 40 µg/mL; MIC (Enterobacter cloacae 681; Enterobacter cloacae, 681, 48 h, read-out: M.I.C.): 10 µg/mL; MIC ([3]; EXP.52145, 24 h, 24 H): 0.05 µg/mL; MIC ([3]; EXP.52145, 48 h, 48 H): 0.1 µg/mL; MIC ([4]; 24 h, read-out: M.I.C.): 0.2 µg/mL; MIC ([4]; 48 h, read-out: M.I.C.): 0.5 µg/mL; MIC ([5]; 48 h): 0.1 µg/mL; MIC ([7]; ATCC6, 24 h, 24 H, read-out: M.I.C.): 0.5 µg/mL; MIC ([12]; 48 h, read-out: M.I.C.): 10 µg/mL; MIC ([15]; 24 h, read-out: M.I.C.): 0.5 µg/mL; MIC ([15]; 48 h, read-out: M.I.C.): 0.5 µg/mL; MIC ([16]; ATCC9, 24 h, 24 H): 0.05 µg/mL; MIC ([16]; ATCC9, 48 h, 48 H): 0.1 µg/mL"
"C=CO/N=C(\C(=O)NC1C(=O)N2C(C(=O)O)=C(COC(C)=O)CSC12)c1csc(N)n1 (stereo not drawn) [Product B, syn isomer of 3-acetoxymethyl-7-[2-(2-amino-4-thiazolyl)-2-vinyloxyimino-acetamido]-ceph-3-eme-4-carboxylic acid]",3 µg/mL,0.5 µg/mL,≤ 0.02 µg/mL,≤ 0.02 µg/mL,5 µg/mL,3 µg/mL,5 µg/mL,≤ 0.02 µg/mL,≤ 0.02 µg/mL,0.5 µg/mL,0.5 µg/mL,1 µg/mL,2 µg/mL,1 µg/mL,2 µg/mL,2 µg/mL,1 µg/mL,1 µg/mL,0.2 µg/mL,0.2 µg/mL,"MIC ([1]; 24 h, read-out: M.I.C.): 0.05 µg/mL; MIC ([1]; 48 h, read-out: M.I.C.): 0.95 µg/mL; MIC ([2]; 99F74, 24 h, 24 H): 5 µg/mL; MIC ([2]; 99F74, 48 h, read-out: M.I.C.): 10 µg/mL; MIC (Enterobacter cloacae 681; Enterobacter cloacae, 681, 48 h): 5 µg/mL; MIC ([3]; EXP.52145, 24 h, 24 H, read-out: M.I.C.): ≤ 0.02 µg/mL; MIC ([3]; EXP.52145, 48 h, 48 H, read-out: M.I.C.): ≤ 0.02 µg/mL; MIC ([4]; 24 h): 1 µg/mL; MIC ([4]; 48 h): 2 µg/mL; MIC ([5]; 48 h, read-out: M.I.C.): 0.5 µg/mL; MIC ([7]; ATCC6, 24 h, 24 H): 2 µg/mL; MIC ([12]; 48 h): 2 µg/mL; MIC ([15]; 24 h): 1 µg/mL; MIC ([15]; 48 h): 1 µg/mL; MIC ([16]; ATCC9, 24 h, 24 H, read-out: M.I.C.): 0.5 µg/mL; MIC ([16]; ATCC9, 48 h, 48 H, read-out: M.I.C.): 0.5 µg/mL"
